The target of the assay is PI3Kδ (PI3Kd) (Homo sapiens (Human), UniProt O00329). In words: PI3K HTRF enzymatic inhibition assay (cell-free), delta isoform. The conditions noted are these: read-out: IC50 PI3Kd HTRF; recombinant PI3K delta, [ATP] 15 μM, [PIP2] 2 μM, 30 min preincubation.
Sequence of PI3Kδ (PI3Kd) (O00329 whole entry, canonical isoform): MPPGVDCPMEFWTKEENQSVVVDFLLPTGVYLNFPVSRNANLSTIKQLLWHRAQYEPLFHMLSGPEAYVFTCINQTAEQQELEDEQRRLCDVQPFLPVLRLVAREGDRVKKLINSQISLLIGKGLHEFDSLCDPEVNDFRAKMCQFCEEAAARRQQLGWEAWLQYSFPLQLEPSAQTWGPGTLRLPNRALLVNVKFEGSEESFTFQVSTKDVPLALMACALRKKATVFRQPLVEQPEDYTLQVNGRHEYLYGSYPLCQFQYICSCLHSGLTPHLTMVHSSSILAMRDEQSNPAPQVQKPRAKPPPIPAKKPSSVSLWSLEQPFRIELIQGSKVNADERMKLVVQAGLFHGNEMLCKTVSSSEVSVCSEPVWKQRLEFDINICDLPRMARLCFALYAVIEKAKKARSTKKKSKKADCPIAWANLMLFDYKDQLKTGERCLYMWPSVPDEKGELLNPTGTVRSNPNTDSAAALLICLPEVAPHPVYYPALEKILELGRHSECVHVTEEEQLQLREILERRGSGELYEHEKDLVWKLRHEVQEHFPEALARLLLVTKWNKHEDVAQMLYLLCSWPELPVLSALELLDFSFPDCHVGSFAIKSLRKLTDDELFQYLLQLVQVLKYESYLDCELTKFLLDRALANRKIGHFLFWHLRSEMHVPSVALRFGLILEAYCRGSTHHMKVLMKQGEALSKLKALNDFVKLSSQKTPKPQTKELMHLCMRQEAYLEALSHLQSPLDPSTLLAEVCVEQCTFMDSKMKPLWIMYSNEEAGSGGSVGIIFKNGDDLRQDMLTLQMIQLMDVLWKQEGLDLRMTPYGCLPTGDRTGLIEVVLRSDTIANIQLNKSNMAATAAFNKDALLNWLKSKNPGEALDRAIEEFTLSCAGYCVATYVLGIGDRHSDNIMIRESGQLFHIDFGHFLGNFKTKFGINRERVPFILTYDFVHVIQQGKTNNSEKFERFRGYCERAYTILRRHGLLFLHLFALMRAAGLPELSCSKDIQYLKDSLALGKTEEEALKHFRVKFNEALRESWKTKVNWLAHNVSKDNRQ
Sequence of PI3Kδ (PI3Kd) (P27986 whole entry partner, canonical isoform): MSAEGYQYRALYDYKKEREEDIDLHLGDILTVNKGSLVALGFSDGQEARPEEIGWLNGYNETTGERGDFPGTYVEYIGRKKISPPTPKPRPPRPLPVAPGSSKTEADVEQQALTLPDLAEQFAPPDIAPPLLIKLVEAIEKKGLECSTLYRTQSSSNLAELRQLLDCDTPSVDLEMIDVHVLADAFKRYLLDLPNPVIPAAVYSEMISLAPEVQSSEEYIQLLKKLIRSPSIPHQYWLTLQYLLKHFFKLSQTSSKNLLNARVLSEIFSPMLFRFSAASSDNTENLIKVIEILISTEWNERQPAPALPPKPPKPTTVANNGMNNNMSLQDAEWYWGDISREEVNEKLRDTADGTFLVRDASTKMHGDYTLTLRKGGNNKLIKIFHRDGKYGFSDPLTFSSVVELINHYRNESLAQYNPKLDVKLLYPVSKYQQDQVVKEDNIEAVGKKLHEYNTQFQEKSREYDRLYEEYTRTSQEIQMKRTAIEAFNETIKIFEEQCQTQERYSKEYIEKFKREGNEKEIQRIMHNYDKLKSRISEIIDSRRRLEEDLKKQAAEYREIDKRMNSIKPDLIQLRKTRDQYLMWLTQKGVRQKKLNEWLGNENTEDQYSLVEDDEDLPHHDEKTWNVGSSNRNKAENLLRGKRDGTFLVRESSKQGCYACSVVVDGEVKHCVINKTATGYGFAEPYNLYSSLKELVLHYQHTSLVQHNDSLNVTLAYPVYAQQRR
From the text: Compounds were screened for their ability to inhibit PI3Kα (PI3Ka), PI3Kβ (PI3Kb), PI3Kδ (PI3Kd) and PI3Kγ (PI3Kg) using a cell-free based PI3K HTRF™ assay (Millipore, ref. #33-017).
PI-3 Kinase HTRF kit (ref. #33-037) and the different PI3K recombinant isoforms (ref. #14-602, ref. #14-603, ref. #14-604, ref. #15-558 for Alpha, Beta, Delta and Gamma respectively) were purchased at Millipore (expressed in insect cells). ATP was purchased at Sigma Aldrich (ref. #A7699).
The compounds were pre-incubated with the enzyme for 30 min before starting of the catalytic reaction. [PIP2] was used at its Km. […] Time of assay and [Enzyme] were optimized to work in the linear range. Stop and Detection mixtures were used as specified in the Millipore PI-3 Kinase kit.
Reaction time and enzyme concentration in the assay will depend of each batch.
All experiments were analysed using Activity Base software from IDBS and the four-parameter log equation.
Regarding `COc1cc(C#N)cc(-c2c[nH]c3ncnc(N[C@@H](C)c4nn5ccc(C)c5c(=O)n4-c4ccccc4)c23)c1` [Example 147, (S)-3-Methoxy-5-(4-((1-(5-methyl-4-oxo-3-phenyl-3,4-dihydropyrrolo[2,1-f][1,2,4]triazin-2-yl)ethyl)amino)-7H-pyrrolo[2,3-d]pyrimidin-5-yl)benzonitrile], the 50% inhibitory concentration (IC50) is 0.4 nM.

Turning to `Cc1ccn2nc([C@H](C)Nc3ncnc4[nH]cc(-c5cc(O)cc(NS(=O)(=O)CCN(C)C)c5)c34)n(-c3ccccc3)c(=O)c12` [Example 150, (S)-2-(Dimethylamino)-N-(3-hydroxy-5-(4-((1-(5-methyl-4-oxo-3-phenyl-3,4-dihydropyrrolo[2,1-f][1,2,4]triazin-2-yl)ethyl)amino)-7H-pyrrolo[2,3-d]pyrimidin-5-yl)phenyl)ethanesulfonamide], the IC50 amounted to 1 nM.

Take `Cc1ccn2nc([C@H](C)Nc3ncnc4[nH]cc(-c5cc(C(F)(F)F)nn5C)c34)n(-c3ccccc3)c(=O)c12` [Example 151, (S)-5-Methyl-2-(1-((5-(1-methyl-3-(trifluoromethyl)-1H-pyrazol-5-yl)-7H-pyrrolo[2,3-d]pyrimidin-4-yl)amino)ethyl)-3-phenylpyrrolo[2,1-f][1,2,4]triazin-4(3H)-one]: the half-inhibitory concentration (IC50) amounted to 5 nM.

As for `Cc1ccn2nc([C@H](C)Nc3ncnc(N)c3-c3ccc(N4CCN(C(=O)OC(C)(C)C)CC4)cc3)n(-c3ccccc3)c(=O)c12` [Example 152, (S)-tert-Butyl 4-(4-(4-amino-6-((1-(5-methyl-4-oxo-3-phenyl-3,4-dihydropyrrolo[2,1-f][1,2,4]triazin-2-yl)ethyl)amino)pyrimidin-5-yl)phenyl)piperazine-1-carboxylate], the IC50 amounted to 100 nM.

In the case of `Cc1ccn2nc([C@H](C)Nc3ncnc4[nH]cc(-c5ccn(CC(C)(C)CO)n5)c34)n(-c3ccccc3)c(=O)c12` [Example 155, (S)-2-(1-((5-(1-(3-Hydroxy-2,2-dimethylpropyl)-1H-pyrazol-3-yl)-7H-pyrrolo[2,3-d]pyrimidin-4-yl)amino)ethyl)-5-methyl-3-phenylpyrrolo[2,1-f][1,2,4]triazin-4(3H)-one], the concentration for half-maximal inhibition (IC50) turned out to be 0.3 nM.

Regarding `Cc1ccn2nc([C@H](C)Nc3ncnc(N)c3-c3cc(O)cc(C(=O)N(C)C)c3)n(-c3ccccc3)c(=O)c12` [Example 156, (S)-3-(4-Amino-6-((1-(5-methyl-4-oxo-3-phenyl-3,4-dihydropyrrolo[2,1-f][1,2,4]triazin-2-yl)ethyl)amino)pyrimidin-5-yl)-5-hydroxy-N,N-dimethyl benzamide], the IC50 was found to be 1 nM.

With `COc1ncc(-c2c(N)ncnc2N[C@@H](C)c2nn3ccc(C)c3c(=O)n2-c2ccccc2)cc1NS(=O)(=O)c1ccc(O)cc1` [Example 157, (S)—N-(5-(4-Amino-6-((1-(5-methyl-4-oxo-3-phenyl-3,4-dihydropyrrolo[2,1-f][1,2,4]triazin-2-yl)ethyl)amino)pyrimidin-5-yl)-2-methoxypyridin-3-yl)-4-hydroxybenzenesulfonamide], the concentration for half-maximal inhibition (IC50) worked out at 0.2 nM.

Regarding `Cc1ccn2nc([C@H](C)Nc3ncnc4[nH]cc(-c5ccn(Cc6ccccc6O)n5)c34)n(-c3ccccc3)c(=O)c12` [Example 159, (S)-2-(1-((5-(1-(2-Hydroxybenzyl)-1H-pyrazol-3-yl)-7H-pyrrolo[2,3-d]pyrimidin-4-yl)amino)ethyl)-5-methyl-3-phenylpyrrolo[2,1-f][1,2,4]triazin-4(3H)-one], the IC50 was 4 nM.

For the compound `Cc1ccn2nc([C@H](C)Nc3ncnc(N)c3-c3ccc(N4CCNCC4)cc3)n(-c3ccccc3)c(=O)c12` [Example 162, (S)-2-(1-((6-Amino-5-(4-(piperazin-1-yl)phenyl)pyrimidin-4-yl)amino)ethyl)-5-methyl-3-phenylpyrrolo[2,1-f][1,2,4]triazin-4(3H)-one], the IC50 amounted to 132 nM.

What is called IC50 is the concentration at which inhibition is half-maximal.

(Values after patent publication US9388189B2, “Pyrrolotriazinone derivatives as PI3K inhibitors” (ALMIRALL, S.A., priority 2012, dated 2016).)
